Values quoted from earlier work in patent US8389009B2, “Spatial control of signal transduction” (Wisconsin Alumni Research Foundation, priority 2005, dated 2013).
Read-outs that look alike come from different tables or passages of the source.

Experiments:
IGF-1 [1] = target: T1, IGF-1 (Homo sapiens, UniProt P05019); details: handle for IGF-1; literature value; read-out: Affinity (KD)
VEGF [2] = target: T2, VEGF (Homo sapiens, UniProt P15692); details: handle for VEGF; literature value; read-out: Affinity (KD)
T2 sequence (P15692 27-191 isoform P15692-4): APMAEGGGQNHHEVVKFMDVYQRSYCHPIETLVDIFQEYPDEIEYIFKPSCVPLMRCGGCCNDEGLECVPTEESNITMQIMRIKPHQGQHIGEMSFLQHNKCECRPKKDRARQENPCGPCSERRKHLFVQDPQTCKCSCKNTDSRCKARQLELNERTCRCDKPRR

IGF-1 [3] = target: T1, IGF-1; details: natural receptor binding IGF-1, according to previous studies; read-out: affinity (dissociation constant KD)
VEGF [4] = target: T2, VEGF; details: natural receptor binding VEGF, according to previous studies; read-out: affinity (dissociation constant KD)

T1 sequence (P05019 49-118 limits assumed): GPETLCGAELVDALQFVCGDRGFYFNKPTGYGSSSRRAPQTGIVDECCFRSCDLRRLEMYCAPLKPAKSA

RNCFESVAALRRCMY [SEQ ID NO: 8]
Kd (IGF-1 [1]): 100 nM

AAGAAACGGAAGAAUUGGAGACACGCUCGU (chemistry not given here) [SEQ ID NO: 2]
Kd (VEGF [2]): 1 nM

VTCAADALGFLYCWE [SEQ ID NO: 10]
Kd (IGF-1 [1]): 2000 nM

natural IGF-1 receptor: natural cell surface receptor that binds IGF-1
Kd (IGF-1 [3]): ~0.16 nM

GGAAGAAUUGGUCAUCGUCGUCUCCGCCUCCC (chemistry not given here) [SEQ ID NO: 4]
Kd (VEGF [2]): 100 nM

HDCFASVEALRRCMY [SEQ ID NO: 9]
Kd (IGF-1 [1]): 500 nM

AGUUUUGGAAGAAUUGGAUGUUCCGAUCGU (chemistry not given here) [SEQ ID NO: 3]
Kd (VEGF [2]): 10 nM

AUGCAGUUUGAGAAGUCGCGGAU [SEQ ID NO: 1]
Kd (VEGF [2]): 0.01 nM

VEPNCDIHVMWEWECFERL [SEQ ID NO: 5]
Kd (VEGF [2]): 200 nM

EELWCFDGPRAWVCGYVK [SEQ ID NO: 7]
Kd (VEGF [2]): 10000 nM

B1: natural VEGF receptor 1: natural cell surface receptor that binds VEGF (protein, UniProt P17948 27-1338, looked up)
Vascular endothelial growth …: SKLKDPELSLKGTQHIMQAGQTLHLQCRGEAAHKWSLPEMVSKESERLSITKSACGRNGKQFCSTLTLNTAQANHTGFYSCKYLAVPTSKKKETESAIYIFISDTGRPFVEMYSEIPEIIHMTEGRELVIPCRVTSPNITVTLKKFPLDTLIPDGKRIIWDSRKGFIISNATYKEIGLLTCEATVNGHLYKTNYLTHRQTNTIIDVQISTPRPVKLLRGHTLVLNCTATTPLNTRVQMTWSYPDEKNKRASVRRRIDQSNSHANIFYSVLTIDKMQNKDKGLYTCRVRSGPSFKSVNTSVHIYDKAFITVKHRKQQVLETVAGKRSYRLSMKVKAFPSPEVVWLKDGLPATEKSARYLTRGYSLIIKDVTEEDAGNYTILLSIKQSNVFKNLTATLIVNVKPQIYEKAVSSFPDPALYPLGSRQILTCTAYGIPQPTIKWFWHPCNHNHSEARCDFCSNNEESFILDADSNMGNRIESITQRMAIIEGKNKMASTLVVADSRISGIYICIASNKVGTVGRNISFYITDVPNGFHVNLEKMPTEGEDLKLSCTVNKFLYRDVTWILLRTVNNRTMHYSISKQKMAITKEHSITLNLTIMNVSLQDSGTYACRARNVYTGEEILQKKEITIRDQEAPYLLRNLSDHTVAISSSTTLDCHANGVPEPQITWFKNNHKIQQEPGIILGPGSSTLFIERVTEEDEGVYHCKATNQKGSVESSAYLTVQGTSDKSNLELITLTCTCVAATLFWLLLTLFIRKMKRSSSEIKTDYLSIIMDPDEVPLDEQCERLPYDASKWEFARERLKLGKSLGRGAFGKVVQASAFGIKKSPTCRTVAVKMLKEGATASEYKALMTELKILTHIGHHLNVVNLLGACTKQGGPLMVIVEYCKYGNLSNYLKSKRDLFFLNKDAALHMEPKKEKMEPGLEQGKKPRLDSVTSSESFASSGFQEDKSLSDVEEEEDSDGFYKEPITMEDLISYSFQVARGMEFLSSRKCIHRDLAARNILLSENNVVKICDFGLARDIYKNPDYVRKGDTRLPLKWMAPESIFDKIYSTKSDVWSYGVLLWEIFSLGGSPYPGVQMDEDFCSRLREGMRMRAPEYSTPEIYQIMLDCWHRDPKERPRFAELVEKLGDLLQANVQQDGKDYIPINAILTGNSGFTYSTPAFSEDFFKESISAPKFNSGSSDDVRYVNAFKFMSLERIKTFEELLPNATSMFDDYQGDSSTLLASPMLKRFTWTDSKPKASLKIDLRVTSKSKESGLSDVSRPSFCHSSCGHVSEGKRRFTYDHAELERKIACCSPPPDYNSVVLYSTPPI
Kd (VEGF [4]): ~7.5 pM
